Data as given in patent publication US11656230B2, “Method for predicting cancer sensitivity” (Eutropics Pharmaceuticals, Inc., priority 2013, dated 2023).

Key:
[1] = system: Bcl-2/Bcl-xL interactions with pro-death proteins (e.g., Bim); details: Tse et al., 2008; cited from earlier work
[2] = target: Bcl-xL/Bim heterodimer in JEKO-1 cells (Homo sapiens, UniProt Q07817); assay: Flow cytometry (FACS), intracellular staining with HSBXB antibody; format: cell-based; details: 10 uM, 3 hours on ice, clone 32 at 10 ug/ml, FIG. 18
Source text: As a positive control we pretreated with the Bim BH3 peptide at a concentration that achieve saturated binding to the endogenous Bcl-XL. […] To enhance staining and to establish a positive control we added saturating amount of the Bim BH3 peptide to partially lysed cells. As a negative control we pretreated with BH3 mimetic compound, ABT 263 to displace Bim from Bcl-xL. In this experiment 5×10e6 JEKO 1 cells were suspended in Newmeyer buffer (Ryan et al Proc Natl Acad Sci USA 2010; 107:12895-900), digitonin (Sigma-Aldrich, St Louis Mo.) and treated with 100 uM Bim BH3 peptide; or ABT263 compound at 10 uM; or not treated. Cells were incubated on ice for 3 hours, and then washed and treated with clone 32 at 10 ug/ml for 20 minutes, washed again and stained with secondary goat anti-mouse IgG alexa-488. An IgG-2A isotype control was also prepared and run in parallel. Samples are analyzed on a FACS Canto II (BD Biosciences, San Jose Calif.) using the BD FACS Diva software.

[3] = target: Bcl-XL/BIM heterodimer in SKBR3 cells (Homo sapiens, UniProt Q07817); assay: Near-infrared imaging of HSBXB binding in paraformaldehyde fixed cells incubated with ABT-263; format: cell-based; details: different concentrations of ABT-263, FIG. 17
Source text: IRDye 800CW goat anti-mouse antibody was used for detecting the heterodimer specific mouse monoclonal antibody and IRDye 800CW Goat anti-rabbit antibody was used to detect the commercial Bcl-XL rabbit monoclonal antibody. […] The detection system uses near-infrared (IR) fluorophores (670-1100 nm) that have a distinct advantage over visible dyes, in that very low background fluorescence at longer wavelengths provides an excellent signal-to-noise ratio. […] In this system antibodies labeled with IR dyes at different wavelengths are used for detection of multiple targets. The imager simultaneously detects two distinct wavelengths. A scanning optical assembly carries two laser diodes that generate excitation light at 680 and 780 nm, as well as two avalanche photodiodes, which detect emitted fluorescence at 720 and 820 nm. […] IRDye 800CW goat anti-mouse antibody was used for detecting the heterodimer specific mouse monoclonal antibody and IRDye 800CW Goat anti-rabbit antibody was used to detect the commercial Bcl-XL rabbit monoclonal antibody.

[4] = system: mitochondrial outer membrane permeabilization (MOMP); assay: Mitochondrial profiling assay (MOMP); format: cell-based; details: mitochondrial profiling assay (unpublished data)
Source text: In one embodiment, this can be determined by measuring the mitochondrial outer membrane permeabilization (MOMP), which increases when a cell is about to undergo apoptosis. Mitochondrial outer membrane permeabilization can be measured for example, using the potentiometric dye JC-1 or dihydrorhodamine. MOMP can be measured using standard techniques known in the art, including those described in Bogenberger et al. (Leukemia et al. (2014) which is herein incorporated by reference in its entirety). In a non-limiting example, cells are permeabilized and incubated with a mitochondrial dye (e.g. JC-1 or dihydrorhodamine 123) and BH3 peptides with dimethyl sulfoxide or carbonyl cyanide m-chlorophenyl hydrazone (CCCP) and the degree of staining is measured. […] As a positive control we pretreated with the Bim BH3 peptide at a concentration that achieve saturated binding to the endogenous Bcl-XL. This treatment is routinely used as a positive control for complete mitochondrial priming in our mitochondrial profiling AML test. […] To enhance staining and to establish a positive control we added saturating amount of the Bim BH3 peptide to partially lysed cells. […] Samples are analyzed on a FACS Canto II (BD Biosciences, San Jose Calif.) using the BD FACS Diva software.

[5] = target: Bcl-XL/BIM-BH3 heterodimer (Homo sapiens, UniProt Q07817); assay: ELISA: inhibition of HSBXB binding to non-covalent Bcl-XL-GST/BIM-BH3 heterodimer by ABT-263; details: heterodimers formed with BIM peptide on Glutathione-coated ELISA plates; compound added after peptides and before monoclonal antibody; FIG. 15
Method: The compound was added to the ELISA plates after addition of peptides and before adding the monoclonal antibody. The Bib BH3 domain peptide was added as a negative control.
ABT-263 disrupts Bcl-2/Bcl-xL interactions with pro-death proteins (e.g., Bim), leading to the initiation of apoptosis within 2 hours post treatment (Tse et al., 2008).

Sequence of Bcl-XL/BIM-BH3 heterodimer (Q07817 whole entry, the tested form may be a part, one chain of several): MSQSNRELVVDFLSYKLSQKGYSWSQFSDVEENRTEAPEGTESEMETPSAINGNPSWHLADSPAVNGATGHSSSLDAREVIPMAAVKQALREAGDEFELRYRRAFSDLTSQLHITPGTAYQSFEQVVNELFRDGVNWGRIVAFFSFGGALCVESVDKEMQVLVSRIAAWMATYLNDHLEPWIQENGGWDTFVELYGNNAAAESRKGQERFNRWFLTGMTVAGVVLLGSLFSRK
Sequence of Bcl-XL/BIM heterodimer in SKBR3 cells (Q07817 whole entry, one chain of several): as the sequence (Q07817 whole entry, the tested form may be a part, one chain of several) above
Sequence of Bcl-xL/Bim heterodimer in JEKO-1 cells (Q07817 whole entry, one chain of several): as the sequence (Q07817 whole entry, the tested form may be a part, one chain of several) above

**Q.** With `CC1(C)CCC(c2ccc(Cl)cc2)=C(CN2CCN(c3ccc(C(=O)NS(=O)(=O)c4ccc(N[C@H](CCN5CCOCC5)CSc5ccccc5)c(S(=O)(=O)C(F)(F)F)c4)cc3)CC2)C1` [ABT-263, Navitoclax] as the molecule, how does the “time to initiation of apoptosis post treatment” value [1] read?
**A.** Its value is at most 2 h.

**Q.** And the “displacement of Bim from Bcl-xL by flow cytometry using HSBXB antibody” value [2]?
**A.** Its value is “this displacement in measurable by flow cytometry”.

**Q.** What about the “displacement of Bcl-xL bound BIM BH3 peptide detected by HSBXB” value [3] of the same molecule?
**A.** Its value is “displacement of the Bcl-xL bound BIM BH3 peptide is detected”.

**Q.** And the “MOMP on displacement of Bim” value [4]?
**A.** Its value is “results in MOMP”.

**Q.** And the “inhibition of heterodimer antibody signal” value [5]?
**A.** Its value is “dose-dependent inhibition of heterodimer antibody signal”.
